One test deals with B16 mouse melanoma cells. As to the kind of experiment: Anti-tumor activity against B16 mouse melanoma inoculated subcutaneously. Type of test: in vivo. As to conditions: maximum tumor growth inhibition rate during the test period of 20 days, female BDF1 mice, 0.1 mg/kg intravenously on days 1, 5 and 9 after s.c. inoculation; for inhibition in vivo at 0.1 mg/kg: Mus musculus, iv, 480 h, read-out: TGIR (%). The protocol: Anti-tumor activity against B16 mouse melanoma inoculated subcutaneously.
Experiment was carried out with the groups of 6 female BDF1 mice (6 weeks old) purchased from Japan SLC Inc., B16 mouse melanoma cells (1 × 10^6 cells/mouse) were inoculated subcutaneously in the rear region of mice, and the sample prepared in a concentration of 0.1 mg/kg was administered intravenously at a dose of 0.2 ml/20g/mouse after 1, 5 and 9 days from inoculation (the day of inoculation being set as 0 day). The volume of the tumor at the hypodermis of the rear region [(longer diameter × shorter diameter × height)/2] was measured on 8, 12, 16 and 20 days after inoculation, and the tumor growth inhibition rate (TGIR) of each sample was determined. TGIR was calculated from the following equation: TGIR (%) = (1 - T/C) × 100 [formula] wherein C represents a tumor volume of the control group and T represents a tumor volume of the group to which the sample was administered.
In this connection, respective test runs were divided by broken lines.

Test [1] relates to spleen cells of C57BL/6 mouse and pancreatic cells of BALB/c mouse. The test can be described thus: Lymphocyte mixed culture reaction (mouse MLR), uptake of 3H-TdR. The test is classed as cell-based. The settings on record: for activity at 1 µg/mL / activity at 0.1 µg/mL / activity at 0.01 µg/mL: Mus musculus, Lymphocyte, 50 h, read-out: Uptake of ^3H-TdR (% of control). Here is the method: Experiment was carried out with the spleen cells of C57BL/6 mouse which had been treated with mitomycin C (50 µg/ml, 30 min) as the stimulator and with the […] cells of BALB/c mouse as the responder. These […] cells were suspended to a concentration of 2 × 10^6 cells/ml with a culture medium of 10% FCS RPMI 1640, respectively. These cells (50 µl/well) and a sample (10 µl/well) were plated in a 96 well round-bottomed plate and cultured for 42 hours* under the condition of 37°C and 5% CO2. ^3H-thymidine (^3H-TdR) was added in a dose of 0.5 µCi/well. After 8 hours, the cells were harvested and subjected to the measurement of the uptake of ^3H-TdR by a liquid scintillation counter.
*The samples of the compounds 32, 33 and 34 were cultured for 4 days.

Setting [2] is: sample concentration 10^0 µg/ml, cultured for 42 hours, then 8 hours with 3H-TdR.
[3] abbreviates: sample concentration 10^-1 µg/ml, cultured for 42 hours, then 8 hours with 3H-TdR.
Setting [4] is: sample concentration 10^-2 µg/ml, cultured for 42 hours, then 8 hours with 3H-TdR.

As to `CCCCCCCCCCCCCCCCCCCCCC[C@@H](O)C(=O)N[C@@H](CO[C@H]1O[C@H](CO)[C@H](O)[C@H](O)[C@H]1O)[C@H](O)CCCCCCCCCCCCCCC` [Compound 14, (2S,3R)-1-(α-D-galactopyranosyloxy)-2-[(R)-2-hydroxytetracosanoylamino]-3-octadecanol], in the test with B16 mouse melanoma cells, the inhibition in vivo at 0.1 mg/kg was determined as 84%. In addition, the activity at 1 µg/mL in test [1] (setting [2]) was determined as 289%. Besides, in test [1] (setting [3]), the activity at 0.1 µg/mL was 197%. In test [1] (setting [4]), the activity at 0.01 µg/mL stood at 139%.

On to `CCCCCCCCCCCCCC(=O)N[C@@H](CO[C@H]1O[C@H](CO)[C@H](O)[C@H](O)[C@H]1O)[C@@H](O)CCCCCCCCCCCCC` [Compound 12, (2S,3S)-1-(α-D-galactopyranosyloxy)-2-tetradecanoylamino-3-hexadecanol], for which the inhibition in vivo at 0.1 mg/kg in the test on B16 mouse melanoma cells worked out at 41.8%. The activity at 1 µg/mL in test [1] (setting [2]) worked out at 123%. Also, the activity at 0.1 µg/mL in test [1] (setting [3]) is 99%. Besides, the activity at 0.01 µg/mL in test [1] (setting [4]) is 104%.

Regarding `CCCCCCCCCCCCCCCCCCCCCCCC(=O)N[C@@H](CO[C@H]1O[C@H](CO)[C@H](O)[C@H](O)[C@H]1O)[C@H](O)CCCCCCCCCCC` [Compound 9, (2S,3R)-1-(α-D-galactopyranosyloxy)-2-tetracosanoylamino-3-tetradecanol], the inhibition in vivo at 0.1 mg/kg in the test with B16 mouse melanoma cells was 71.5%. Further, the activity at 1 µg/mL in test [1] (setting [2]) came out at 460%. Further, the activity at 0.1 µg/mL in test [1] (setting [3]) was found to be 193%. Besides, the activity at 0.01 µg/mL in test [1] (setting [4]) amounted to 176%.

Consider `CCCCCCCCCCCCCCC[C@@H](O)[C@H](CO[C@H]1O[C@H](CO)[C@H](O)[C@H](O)[C@H]1O)NC(=O)CCCCCCC` [Compound 7, (2S,3R)-1-(α-D-galactopyranosyloxy)-2-octanoylamino-3-octadecanol], for which the inhibition in vivo at 0.1 mg/kg in the test with B16 mouse melanoma cells worked out at 18.5%. Besides, the activity at 1 µg/mL in test [1] (setting [2]) came to 853%. Moreover, the activity at 0.1 µg/mL in test [1] (setting [3]) was found to be 576%. For the same molecule, the activity at 0.01 µg/mL in test [1] (setting [4]) came out at 207%.

Consider `CCCCCCCCCCCCCCC[C@@H](O)[C@H](CO[C@H]1O[C@H](CO)[C@H](O)[C@H](O)[C@H]1O)NC(=O)CCCCCCCCC` [Compound 6, (2S,3R)-2-decanoylamino-1-(α-D-galactopyranosyloxy)-3-octadecanol], for which the inhibition in vivo at 0.1 mg/kg in the test with B16 mouse melanoma cells turned out to be 73.7%. Also, the activity at 1 µg/mL in test [1] (setting [2]) came to 498%. In test [1] (setting [3]), the activity at 0.1 µg/mL is 190%. For the same molecule, the activity at 0.01 µg/mL in test [1] (setting [4]) is 187%.

Take `CCCCCCCCCCCCCCCCCCCC(=O)N[C@@H](CO[C@H]1O[C@H](CO)[C@H](O)[C@H](O)[C@H]1O)[C@H](O)CCCCCCCCCCCCCCC` [Compound 3, (2S,3R)-1-(α-D-galactopyranosyloxy)-2-icosanoylamino-3-octadecanol]: in the test on B16 mouse melanoma cells, the inhibition in vivo at 0.1 mg/kg turned out to be 56.9%. In test [1] (setting [2]), the activity at 1 µg/mL came to 254%. In test [1] (setting [3]), the activity at 0.1 µg/mL came to 117%. Moreover, the activity at 0.01 µg/mL in test [1] (setting [4]) is 110%.

As for `CCCCCCCCCCCCCCCCCCCCCCCC(=O)N[C@@H](CO[C@H]1O[C@H](CO)[C@H](O)[C@H](O)[C@H]1O)[C@H](O)[C@H](O)CCCCCCCCCCCC(C)C` [Compound 31, (2S,3S,4R)-1-(α-D-galactopyranosyloxy)-16-methyl-2-tetracosanoylamino-3,4-heptadecanediol], the inhibition in vivo at 0.1 mg/kg in the test on B16 mouse melanoma cells worked out at 83.4%. Moreover, the activity at 1 µg/mL in test [1] (setting [2]) is 398%. Moreover, the activity at 0.1 µg/mL in test [1] (setting [3]) came to 235%. For the same molecule, in test [1] (setting [4]), the activity at 0.01 µg/mL was found to be 163%.

With `CCCCCCCCCCCCCCCCCCCCCCCC(=O)N[C@@H](CO[C@H]1O[C@H](CO)[C@H](O)[C@H](O)[C@H]1O)[C@H](O)[C@H](O)CCCCCCC` [Compound 19, (2S,3S,4R)-1-(α-D-galactopyranosyloxy)-2-tetracosanoylamino-3,4-undecanediol], the inhibition in vivo at 0.1 mg/kg in the test with B16 mouse melanoma cells is 80.2%. The activity at 1 µg/mL in test [1] (setting [2]) came out at 345%. In addition, in test [1] (setting [3]), the activity at 0.1 µg/mL came out at 188%. In addition, the activity at 0.01 µg/mL in test [1] (setting [4]) was found to be 144%.

Consider `CCCCCCCCCCCCCCCCCCCCCC[C@@H](O)C(=O)N[C@@H](CO[C@H]1O[C@H](CO)[C@H](O)[C@H](O)[C@H]1O)[C@H](O)[C@H](O)CCCCCCCCCCCCCC` [Compound 21, (2S,3S,4R)-1-(α-D-galactopyranosyloxy)-2-[(R)-2-hydroxytetracosanoylamino]-3,4-octadecanediol], for which the inhibition in vivo at 0.1 mg/kg in the test on B16 mouse melanoma cells came out at 57.9%. In test [1] (setting [2]), the activity at 1 µg/mL came to 304%. Besides, the activity at 0.1 µg/mL in test [1] (setting [3]) turned out to be 149%. The activity at 0.01 µg/mL in test [1] (setting [4]) is 142%.

As to `CCCCCCCCCCCCCCC[C@@H](O)[C@H](CO[C@H]1O[C@H](CO)[C@H](O)[C@H](O)[C@H]1O)NC(C)=O` [Compound 8, (2S,3R)-2-acetamino-1-(α-D-galactopyranosyloxy)-3-octadecanol], the inhibition in vivo at 0.1 mg/kg with B16 mouse melanoma cells was determined as 22.1%. Moreover, in test [1] (setting [2]), the activity at 1 µg/mL was determined as 297%. In test [1] (setting [3]), the activity at 0.1 µg/mL is 189%. For the same molecule, the activity at 0.01 µg/mL in test [1] (setting [4]) was 96%.

Turning to `CCCCCCCCCCCCCCCCCC(=O)N[C@@H](CO[C@H]1O[C@H](CO)[C@H](O)[C@H](O)[C@H]1O)[C@H](O)CCCCCCCCCCCCCCC` [Compound 4, (2S,3R)-1-(α-D-galactopyranosyloxy)-2-octadecanoylamino-3-octadecanol], the inhibition in vivo at 0.1 mg/kg in the test on B16 mouse melanoma cells turned out to be 78.1%. Besides, the activity at 1 µg/mL in test [1] (setting [2]) was found to be 269%. Also, in test [1] (setting [3]), the activity at 0.1 µg/mL came out at 158%. The activity at 0.01 µg/mL in test [1] (setting [4]) was 134%.

For the molecule `CCCCCCCCCCCCCCCCCCCCCCCC(=O)N[C@@H](CO[C@H]1O[C@H](CO)[C@H](O)[C@H](O)[C@H]1O)[C@H](O)[C@H](O)CCCCCCCCCCC` [Compound 18, (2S,3S,4R)-1-(α-D-galactopyranosyloxy)-2-tetracosanoylamino-3,4-pentadecanediol], the inhibition in vivo at 0.1 mg/kg in the test on B16 mouse melanoma cells came out at 66.3%. For the same molecule, the activity at 1 µg/mL in test [1] (setting [2]) came out at 482%. In test [1] (setting [3]), the activity at 0.1 µg/mL was 176%. Moreover, the activity at 0.01 µg/mL in test [1] (setting [4]) was determined as 138%.

Take “(2S,3S,4R)-1-(α-D-galactopyranosyloxy)-2-[(R)-2-hydroxytricosanoylamino]-16-methyl-3,4-heptadecanediol [Compound 33]”: the “TGIR (%)” value in the test with B16 mouse melanoma cells is given as 76.5%. Further, the “Uptake of ^3H-TdR (% of control)” value is on record as 365 % of control in test [1] (sample concentration 10^-1 µg/ml, cultured for 4 days) and 422 % of control in test [1] (sample concentration 10^-2 µg/ml, cultured for 4 days).

Turning to `CCCCCCCCCCCCCCCCCCCCCC[C@@H](O)C(=O)N[C@@H](CO[C@H]1O[C@H](CO)[C@H](O)[C@H](O)[C@H]1O)[C@H](O)[C@H](O)CCCCCCC` [Compound 24, (2S,3S,4R)-1-(α-D-galactopyranosyloxy)-2-[(R)-2-hydroxytetracosanoylamino]-3,4-undecanediol], the inhibition in vivo at 0.1 mg/kg with B16 mouse melanoma cells was 52.5%. Besides, the activity at 1 µg/mL in test [1] (setting [2]) worked out at 416%. Moreover, the activity at 0.1 µg/mL in test [1] (setting [3]) came to 167%. The activity at 0.01 µg/mL in test [1] (setting [4]) was found to be 144%.

For the molecule “(2S,3S,4R)-1-(α-D-galactopyranosyloxy)-2-[(R)-2-hydroxytetracosanoylamino]-3,4-heptadecanediol [Compound 22]”, the “TGIR (%)” value in the test on B16 mouse melanoma cells worked out at 82.4%. For the same molecule, the results for the “Uptake of ^3H-TdR (% of control)” value in test [1] (setting [2]), in test [1] (setting [3]) and in test [1] (setting [4]) were 414 % of control, 166 % of control and 149 % of control, respectively.

Take `CCCCCCCCCCCCCCCCCCCCCCCCCC(=O)N[C@@H](CO[C@H]1O[C@H](CO)[C@H](O)[C@H](O)[C@H]1O)[C@H](O)[C@H](O)CCCCCCCCCCCCC` [Compound 20, (2S,3S,4R)-1-(α-D-galactopyranosyloxy)-2-hexacosanoylamino-3,4-heptadecanediol]: in the test on B16 mouse melanoma cells, the inhibition in vivo at 0.1 mg/kg turned out to be 73.7%. Moreover, the activity at 1 µg/mL in test [1] (setting [2]) came out at 443%. Further, the activity at 0.1 µg/mL in test [1] (setting [3]) was 188%. In test [1] (setting [4]), the activity at 0.01 µg/mL worked out at 192%.

`CCCCCCCCCCCCC/C=C/[C@@H](O)[C@H](CO[C@H]1O[C@H](CO)[C@H](O)[C@H](O)[C@H]1O)NC(=O)CCCCCCCCCCCCC` [Compound 35, (2S,3R,4E)-1-(α-D-galactopyranosyloxy)-2-tetradecanoylamino-4-octadecen-3-ol]: in the test with B16 mouse melanoma cells, the inhibition in vivo at 0.1 mg/kg stood at 63%. Moreover, the activity at 1 µg/mL in test [1] (setting [2]) was 562%. Besides, the activity at 0.1 µg/mL in test [1] (setting [3]) came out at 261%. The activity at 0.01 µg/mL in test [1] (setting [4]) was 247%.

For the origin of these results see patent EP0609437B1, “NOVEL SPHINGOGLYCOLIPID AND USE THEREOF” (KIRIN BEER KABUSHIKI KAISHA, priority 1991, dated 1993).
